In one assay the target is T1, mouse 11β-HSD1 (Mus musculus, UniProt P50172).
T1 construct: 100 ug/ml human/mouse liver microsomes; from tissue; host or cells: mouse liver microsomes
Briefly: Enzyme activity analysis on mouse 11β-HSD1 (HTRF cortisol, liver microsomes). The class given is biochemical. As to conditions: second value of cell. The procedure, abridged: (§1)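 Cortisol generated by mouse or human liver microsome 11β-HSD1 during 2 h at 37° C., measured by HTRF competition (cryptate anti-cortisol antibody, d2-cortisol, 2 h room temperature) against a cortisol standard curve. IC50 from percent inhibition versus no-compound control.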
In general terms: TR-FRET usually uses a lanthanide donor and a delayed reading to cut background.

A further assay has as its target T2, human 11β-HSD1 (Homo sapiens, UniProt P28845).
T2 construct: 100 ug/ml human/mouse liver microsomes; from tissue; host or cells: human liver microsomes
Briefly: Enzyme activity analysis on human 11β-HSD1 (HTRF cortisol, liver microsomes). The assay is classed as biochemical. Particulars: first value of cell. The procedure, abridged:
as §1

Usually IC50 stands for the concentration needed to halve the response being measured.

Where only a bound is given, the exact number is not on record here.

T2 sequence (P28845 whole entry): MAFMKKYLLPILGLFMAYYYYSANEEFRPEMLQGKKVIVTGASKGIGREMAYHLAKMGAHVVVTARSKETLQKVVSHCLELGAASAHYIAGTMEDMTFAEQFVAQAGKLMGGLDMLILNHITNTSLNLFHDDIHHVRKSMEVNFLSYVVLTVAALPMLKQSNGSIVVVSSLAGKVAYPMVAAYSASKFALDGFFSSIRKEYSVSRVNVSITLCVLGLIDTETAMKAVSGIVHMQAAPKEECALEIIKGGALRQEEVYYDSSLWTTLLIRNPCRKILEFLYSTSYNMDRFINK
T1 sequence (P50172 whole entry): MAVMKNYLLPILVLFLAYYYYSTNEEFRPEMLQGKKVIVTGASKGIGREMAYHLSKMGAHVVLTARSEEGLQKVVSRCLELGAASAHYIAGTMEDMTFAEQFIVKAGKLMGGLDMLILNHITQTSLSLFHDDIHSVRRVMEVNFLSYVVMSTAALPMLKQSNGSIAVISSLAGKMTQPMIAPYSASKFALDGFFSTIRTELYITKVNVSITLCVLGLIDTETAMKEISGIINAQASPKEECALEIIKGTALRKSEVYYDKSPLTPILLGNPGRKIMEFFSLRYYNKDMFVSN

As to `Cc1ccc([N+](=O)[O-])cc1S(=O)(=O)NC(C)(C)C(=O)NC1C2CC3CC(C2)CC1C3` (centres unmarked) [compound 40, N-(adamantane-2-yl)-2-methyl-2-(5-nitro-2-methylphenylsulfonamido)propanamide], the IC50 was determined as 1.85 µM at mouse 11β-HSD1 and 0.098 µM against human 11β-HSD1.
For the molecule `CCN(C(C)(C)C(=O)NC1C2CC3CC1CC(C(N)=O)(C3)C2)S(=O)(=O)c1ccccc1F` (centres unmarked) [compound 211, N-4-(2-(2-fluoro-N-ethylphenylsulfonamido)-2-methylpropanamido)adamantane-1-carboxyamide], the IC50 was 0.079 µM against mouse 11β-HSD1 and 0.006 µM on human 11β-HSD1.
Take `COc1cccc(S(=O)(=O)NC(C)(C)C(=O)NC2C3CC4CC(C3)CC2C4)c1` (centres unmarked) [compound 29, N-(adamantane-2-yl)-2-methyl-2-(3-methoxyphenylsulfonamido)propanamide]: the IC50 against mouse 11β-HSD1 was 0.329 µM; at human 11β-HSD1, 0.216 µM.
The matching figures for `NC(=O)C12CC3CC(C1)C(NC(=O)C1(NS(=O)(=O)c4cccc(Cl)c4F)CCCC1)C(C3)C2` (centres unmarked) [compound 177, N-4-(1-(2-fluoro-3-chlorophenylsulfonamido)cyclopentanecarboxyamido)adamantane-1-carboxyamide]: 0.006 µM and 0.009 µM.
For `CC(C)(NS(=O)(=O)Cc1ccccc1[N+](=O)[O-])C(=O)NC1C2CC3CC(C2)CC1C3` (centres unmarked) [compound 22, N-(adamantane-2-yl)-2-methyl-2-((2-nitrophenyl)methylsulfonamido)propanamide], the figures for the IC50 at mouse 11β-HSD1 and at human 11β-HSD1 were 1.06 µM and 0.033 µM, respectively.
On to `CN(C(C)(C)C(=O)NC1C2CC3CC1CC(O)(C3)C2)S(=O)(=O)c1ccccc1Br` (centres unmarked) [compound 206, N-(5-hydroxyadamantane-2-yl)-2-(2-bromo-N-methylphenylsulfonamido)-2-methylpropanamide], for which the results for the IC50 at mouse 11β-HSD1 and on human 11β-HSD1 were 0.041 µM and 0.005 µM, respectively.
With `Cc1cc(C)cc(S(=O)(=O)NC(C)(C)C(=O)NC2C3CC4CC2CC(C(N)=O)(C4)C3)c1` (centres unmarked) [compound 91, N-4-(2-(3,5-dimethylphenylsulfonamido)-2-methylpropanamido)adamantane-1-carboxyamide], the values for the IC50 against mouse 11β-HSD1 and against human 11β-HSD1 were 0.107 µM and 0.016 µM, respectively.
The matching figures for `Cc1ccc(S(=O)(=O)NC2(C(=O)NC3C4CC5CC3CC(C(N)=O)(C5)C4)CCCCC2)cc1F` (centres unmarked) [compound 187, N-4-(1-(3-fluoro-4-methylphenylsulfonamido)cyclohexanecarboxyamido)adamantane-1-carboxyamide]: greater than 2.5 µM and 0.076 µM.
For the molecule `COc1ccc(S(=O)(=O)NC(C)(C)C(=O)NC2C3CC4CC(C3)CC2C4)cc1[N+](=O)[O-]` (centres unmarked) [compound 68, N-(adamantane-2-yl)-2-methyl-2-(4-methoxy-3-nitrophenylsulfonamido)propanamide], the half-inhibitory concentration (IC50) against mouse 11β-HSD1 is 1.12 µM; against human 11β-HSD1 it was 1.2 µM.
The matching figures for `Cc1c(Cl)cccc1S(=O)(=O)NC1(C(=O)NC2C3CC4CC2CC(C(N)=O)(C4)C3)CCC1` (centres unmarked) [compound 149, N-4-(1-(2-methyl-3-chlorophenylsulfonamido)cyclobutanecarboxyamido)adamantane-1-carboxyamide]: 0.04 µM and 0.015 µM.
The matching figures for `Cc1ccccc1S(=O)(=O)NC1(C(=O)NC2C3CC4CC2CC(C(N)=O)(C4)C3)CCC1` (centres unmarked) [compound 156, N-4-(1-(2-methylphenylsulfonamido)cyclobutanecarboxyamido)adamantane-1-carboxyamide]: 0.138 µM and 0.046 µM.
For `CC(C)(NS(=O)(=O)c1cccc(Cl)c1Cl)C(=O)NC1C2CC3CC(C2)CC1C3` (centres unmarked) [compound 8, N-(adamantane-2-yl)-2-methyl-2-(2,3-dichlorophenylsulfonamido)propanamide], the IC50 is 0.264 µM on mouse 11β-HSD1 and 0.052 µM against human 11β-HSD1.
As to `CC(C)(NS(=O)(=O)c1cccc(Br)c1)C(=O)NC1C2CC3CC(C2)CC1C3` (centres unmarked) [compound 64, N-(adamantane-2-yl)-2-methyl-2-(3-bromophenylsulfonamido)propanamide], the IC50 on mouse 11β-HSD1 was 1.02 µM; against human 11β-HSD1, 0.433 µM.
For the molecule `CC(C)(NS(=O)(=O)c1cccnc1Cl)C(=O)NC1C2CC3CC(C2)CC1C3` (centres unmarked) [compound 50, N-(adamantane-2-yl)-2-methyl-2-(2-chloropyridine-3-sulfonamido)propanamide], the IC50 on mouse 11β-HSD1 is 0.292 µM; against human 11β-HSD1, 0.105 µM.
For `CCCN(C(C)(C)C(=O)NC1C2CC3CC1CC(C(N)=O)(C3)C2)S(=O)(=O)c1ccccc1C(F)(F)F` (centres unmarked) [compound 218, N-4-(2-(2-trifluoromethyl-N-propylphenylsulfonamido)-2-methylpropanamido)adamantane-1-carboxyamide], the IC50 on mouse 11β-HSD1 turned out to be 0.462 µM; at human 11β-HSD1, 0.053 µM.
`NC(=O)C12CC3CC(C1)C(NC(=O)C1(NS(=O)(=O)c4ccccc4Cl)CCCC1)C(C3)C2` (centres unmarked) [compound 170, N-4-(1-(2-chlorophenylsulfonamido)cyclopentanecarboxyamido)adamantane-1-carboxyamide]: the half-inhibitory concentration (IC50) against mouse 11β-HSD1 worked out at 0.012 µM; against human 11β-HSD1, 0.011 µM.
For the molecule `NC(=O)C12CC3CC(C1)C(NC(=O)C1(NS(=O)(=O)c4ccc(Cl)cc4Cl)CCC1)C(C3)C2` (centres unmarked) [compound 153, N-4-(1-(2,4-dichlorophenylsulfonamido)cyclobutanecarboxyamido)adamantane-1-carboxyamide], the IC50 turned out to be 0.459 µM against mouse 11β-HSD1 and 0.058 µM at human 11β-HSD1.
`CCCc1ccc(S(=O)(=O)NC(C)(C)C(=O)NC2C3CC4CC2CC(C(N)=O)(C4)C3)cc1` (centres unmarked) [compound 99, N-4-(2-(4-propylphenylsulfonamido)-2-methylpropanamido)adamantane-1-carboxyamide]: the IC50 against mouse 11β-HSD1 is 0.124 µM; at human 11β-HSD1 it was 0.047 µM.
`Cc1cc(C)cc(S(=O)(=O)NC(C)(C)C(=O)NC2C3CC4CC(C3)CC2C4)c1` (centres unmarked) [compound 59, N-(adamantane-2-yl)-2-methyl-2-(3,5-dimethylphenylsulfonamido)propanamide]: the IC50 at mouse 11β-HSD1 is 1.21 µM; at human 11β-HSD1, 0.331 µM.
Take `CC(C)(NS(=O)(=O)c1cc(F)ccc1F)C(=O)NC1C2CC3CC1CC(C(N)=O)(C3)C2` (centres unmarked) [compound 120]: the IC50 against mouse 11β-HSD1 came to 0.453 µM; on human 11β-HSD1, 0.051 µM.
Regarding `Cc1ccc(S(=O)(=O)NC(C)(C)C(=O)NC2C3CC4CC2CC(C(N)=O)(C4)C3)cc1[N+](=O)[O-]` (centres unmarked) [compound 114, N-4-(2-(3-nitro-4-methylphenylsulfonamido)-2-methylpropanamido)adamantane-1-carboxyamide], the IC50 on mouse 11β-HSD1 is 0.207 µM; against human 11β-HSD1 it was 0.093 µM.
The matching figures for `CC(C)(NS(=O)(=O)c1cccc(C(F)(F)F)c1)C(=O)NC1C2CC3CC1CC(C(N)=O)(C3)C2` (centres unmarked) [compound 127]: 0.053 µM and 0.062 µM.
Take `CN(C1(C(=O)NC2C3CC4CC2CC(C(N)=O)(C4)C3)CCC1)S(=O)(=O)c1ccccc1[N+](=O)[O-]` (centres unmarked) [compound 199, N-4-(1-(N-methyl-2-nitrophenylsulfonamido)cyclobutanecarboxyamido)adamantane-1-carboxyamide]: the values for the 50% inhibitory concentration (IC50) against mouse 11β-HSD1 and on human 11β-HSD1 were 0.016 µM and 0.004 µM, respectively.
The matching figures for `Cc1ccc(S(=O)(=O)NC(C)(C)C(=O)NC2C3CC4CC2CC(C(N)=O)(C4)C3)cc1Cl` (centres unmarked) [compound 103, N-4-(2-(3-chloro-4-methylphenylsulfonamido)-2-methylpropanamido)adamantane-1-carboxyamide]: 0.037 µM and 0.026 µM.
For `CC(C)(NS(=O)(=O)c1ccc([N+](=O)[O-])cc1)C(=O)NC1C2CC3CC1CC(O)(C3)C2` (centres unmarked) [compound 78, N-(5-hydroxyadamantane-2-yl)-2-methyl-2-(4-nitrophenylsulfonamido)propanamide], the IC50 was found to be 1.21 µM against mouse 11β-HSD1 and 0.692 µM at human 11β-HSD1.
`CC(C)(NS(=O)(=O)CCc1cccc2ccccc12)C(=O)NC1C2CC3CC(C2)CC1C3` (centres unmarked) [compound 52, N-(adamantane-2-yl)-2-methyl-2-(2-(naphthalene-1-yl)ethylsulfonamido)propanamide]: the figures for the IC50 against mouse 11β-HSD1 and on human 11β-HSD1 were 2.14 µM and 1.17 µM, respectively.
As to `NC(=O)C12CC3CC(C1)C(NC(=O)C1(NS(=O)(=O)c4cccc5cccnc45)CC1)C(C3)C2` (centres unmarked) [compound 135, N-4-(1-(quinoline-8-sulfonamido)cyclopropanecarboxyamido)adamantane-1-carboxyamide], the figures for the IC50 at mouse 11β-HSD1 and against human 11β-HSD1 were 0.02 µM and 0.042 µM, respectively.
On to `CC(C)(NS(=O)(=O)c1ccc(F)c(Cl)c1)C(=O)NC1C2CC3CC(C2)CC1C3` (centres unmarked) [compound 54, N-(adamantane-2-yl)-2-methyl-2-(4-fluoro-3-chlorophenylsulfonamido)propanamide], for which the 50% inhibitory concentration (IC50) against mouse 11β-HSD1 is 0.904 µM; against human 11β-HSD1, 0.223 µM.
Regarding `CCN(CC)C(=O)C12CC3CC(C1)C(NC(=O)C(C)(C)NS(=O)(=O)c1ccccc1Cl)C(C3)C2` (centres unmarked) [compound 227, 4-[2-(2-chloro-benzenesulfonylamino)-2-methyl-propionylamino]-adamantane-1-carboxylic acid diethylamide], the IC50 against mouse 11β-HSD1 and against human 11β-HSD1 was greater than 2.5 µM each time.
As to `CC(C)(NS(=O)(=O)c1ccccc1Cl)C(=O)NC1C2CC3CC1CC(C(=O)NC1CCCCC1)(C3)C2` (centres unmarked) [compound 233, 4-[2-(2-chloro-benzenesulfonylamino)-2-methyl-propionylamino]-adamantane-1-carboxylic acid cyclohexylamide], the 50% inhibitory concentration (IC50) against mouse 11β-HSD1 and on human 11β-HSD1 was greater than 2.5 µM each time.
Consider `O=C(NC1C2CC3CC(C2)CC1C3)C1(NS(=O)(=O)c2ccccc2Br)CCC1` (centres unmarked) [compound 138, N-(adamantane-2-yl)-1-(2-bromophenylsulfonamido)cyclobutanecarboxyamide], for which the 50% inhibitory concentration (IC50) at mouse 11β-HSD1 is 0.806 µM; on human 11β-HSD1 it was 0.113 µM.
